Experimental data from US20240287042A1, “NOVEL COMPOUND HAVING INHIBITORY ACTIVITY AGAINST PENDRIN, AND PHARMACEUTICAL USES THEREOF” (UIF (University Industry Foundation), Yonsei University, priority 2021, published 2024).

Target: T1, human wild-type (WT)-pendrin (Homo sapiens, UniProt O43511)
T1 construct: expressed in transfected cells
T1 sequence (O43511 1-780): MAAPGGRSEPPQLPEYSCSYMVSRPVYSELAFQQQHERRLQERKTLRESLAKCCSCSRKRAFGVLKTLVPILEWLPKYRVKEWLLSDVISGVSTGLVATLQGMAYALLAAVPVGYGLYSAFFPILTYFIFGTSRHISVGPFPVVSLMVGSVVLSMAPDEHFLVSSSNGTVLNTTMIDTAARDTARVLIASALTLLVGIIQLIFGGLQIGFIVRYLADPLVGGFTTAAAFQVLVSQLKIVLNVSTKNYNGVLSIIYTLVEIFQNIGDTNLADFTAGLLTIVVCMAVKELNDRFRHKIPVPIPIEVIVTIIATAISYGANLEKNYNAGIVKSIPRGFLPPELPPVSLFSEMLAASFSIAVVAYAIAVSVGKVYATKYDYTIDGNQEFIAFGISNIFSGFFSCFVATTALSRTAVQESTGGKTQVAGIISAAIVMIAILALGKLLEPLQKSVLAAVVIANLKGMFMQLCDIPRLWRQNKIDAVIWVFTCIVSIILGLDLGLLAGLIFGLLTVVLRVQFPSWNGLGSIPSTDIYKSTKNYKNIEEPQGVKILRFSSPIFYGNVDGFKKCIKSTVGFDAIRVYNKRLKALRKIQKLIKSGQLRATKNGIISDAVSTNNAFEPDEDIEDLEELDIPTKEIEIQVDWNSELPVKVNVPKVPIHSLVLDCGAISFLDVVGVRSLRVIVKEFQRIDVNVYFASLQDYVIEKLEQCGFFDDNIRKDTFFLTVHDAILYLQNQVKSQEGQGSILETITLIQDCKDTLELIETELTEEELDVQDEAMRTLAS
Test: Pendrin Cl−/I− exchange inhibitory activity, YFP fluorescence in CHO-K1 cells
Type: cell-based
Conditions: CHO-K1; for inhibition at 1 µM: compound concentration 1 μM; for inhibition at 3 µM: compound concentration 3 μM; for inhibition at 10 µM: compound concentration 10 μM; for inhibition at 30 µM: compound concentration 30 μM; for inhibition at 100 µM: compound concentration 100 μM
Description: Chinese hamster ovary (CHO)-K1 cells were cultured in DMEM medium containing 10% fetal bovine serum (FBS), 100 units/ml of penicillin and 100 μg/ml streptomycin. CHO-K1 cells were stably transfected with pcDNA3.1 encoding the halide sensor YFP-H148Q/I152L/F46L and human wild-type (WT)-pendrin.
(§1) CHO-K1 cells expressing human WT pendrin and YFP-F46L/H148Q/I152L were plated in 96-well microplates at a density of 2×10^4 cells per well, and cultured for 48 hours. Each well of the cell cultured 96-well plate was washed 2 times with 200 μL of PBS, and filled with 50 μL of HEPES buffered solution (140 mM NaCl, 5 mM KCl, 1 mM MgCl2, 1 mM CaCl2), 10 mM glucose and 10 mM HEPES (pH 7.4)). Test compounds (1 μL) were added to a final concentration of 1, 3, 10, 30 and 100 μM. After culturing at 37° C. for 10 minutes, the 96-well plate was located on the FLUOstar Omega Microplate Reader (BMG Labtech, Ortenberg, Germany) for a fluorescence assay. Fluorescence was recorded continuously (400 ms per point) for 1 second (baseline), whereby each well was assayed individually for pendrin-mediated I-influx. Then 50 μL of Na-substituted HEPES buffered solution (replacing NaCl with NaI) was added using a liquid injector at 1 second, and YFP fluorescence was recorded for 5 seconds. The initial iodide influx rate was determined from the initial slope of fluorescence by nonlinear regression, after the injection of iodide.
as §1, with “Chinese hamster ovary (CHO)-K1 cells were cultured in DMEM medium containing 10% fetal bovine serum (FBS), 100 units/ml of penicillin and 100 μg/ml streptomycin. CHO-K1 cells were stably transfected with pcDNA3.1 encoding the halide sensor YFP-H148Q/I152L/F46L and human wild-type (WT)-pendrin. 3-2: Assay of Cl^−/I^− exchange activity CHO-K1” for “CHO-K1”, “50” for “1, 3, 10, 30 and 100”, “Then,” for “Then”, “NaI-substituted” for “Na-substituted”

| inhibition at 1 µM [%] | inhibition at 3 µM [%] | inhibition at 10 µM [%] | inhibition at 30 µM [%] | inhibition at 100 µM [%] | SMILES |
| --- | --- | --- | --- | --- | --- |
| < 20 | < 20 | < 20 | < 20 | 40.2 | O=C(O)c1[nH]c2ccc(Cl)cc2c1CC(=O)N1CCN(c2ccccc2)CC1 [YPI-A4881, 5-Chloro-3-(2-oxo-2-(4-phenylpiperazin-1-yl)ethyl)-1H-indole-2-carboxylic acid] |
| < 20 | < 20 | < 20 | < 20 | 45.3 | CCOc1ccccc1N1CCN(C(=O)Cc2c(C(=O)O)[nH]c3ccc(Cl)cc23)CC1 [YPI-A4882, 5-Chloro-3-(2-(4-(2-ethoxyphenyl)piperazin-1-yl)-2-oxoethyl)-1H-indole-2-carboxylic acid] |
| < 20 | < 20 | 69.1 | 83.7 | 84.2 | O=C(O)c1[nH]c2ccc(Cl)cc2c1CC(=O)N1CCN(c2ccc(F)cc2Cl)CC1 [YPI-A4885, 5-Chloro-3-(2-(4-(2-chloro-4-fluorophenyl)piperazin-1-yl)-2-oxoethyl)-1H-indole-2-carboxylic acid] |
| < 20 | 50.8 | 89.3 | 89.5 | 89.9 | O=C(O)c1[nH]c2ccc(Cl)cc2c1CC(=O)N1CCN(c2ccc(Cl)cc2Cl)CC1 [YPI-A4887, 5-Chloro-3-(2-(4-(2,4-dichlorophenyl)piperazin-1-yl)-2-oxoethyl)-1H-indole-2-carboxylic acid] |
| < 20 | < 20 | < 20 | 65.2 | 93.3 | O=C(O)c1[nH]c2ccc(Cl)cc2c1CC(=O)N1CCN(c2ccc(F)cc2F)CC1 [YPI-A4915, 5-Chloro-3-(2-(4-(2,4-difluorophenyl)piperazin-1-yl)-2-oxoethyl)-1H-indole-2-carboxylic acid] |
| < 20 | < 20 | < 20 | < 20 | 78.3 | O=C(O)c1[nH]c2ccc(Cl)cc2c1CC(=O)N1CCN(c2ccccc2F)CC1 [YPI-A4917, 5-Chloro-3-(2-(4-(2-fluorophenyl)piperazin-1-yl)-2-oxoethyl)-1H-indole-2-carboxylic acid] |
| < 20 | 34.7 | 87.5 | 94.8 | 95.6 | Cc1c(Cl)cccc1N1CCN(C(=O)Cc2c(C(=O)O)[nH]c3ccc(Cl)cc23)CC1 [YPI-A4918, 5-Chloro-3-(2-(4-(3-chloro-2-methylphenyl)piperazin-1-yl)-2-oxoethyl)-1H-indole-2-carboxylic acid] |

Continued, compound first:

| SMILES | inhibition at 1 µM [%] | inhibition at 3 µM [%] | inhibition at 10 µM [%] | inhibition at 30 µM [%] | inhibition at 100 µM [%] |
| --- | --- | --- | --- | --- | --- |
| Cc1cccc(Cl)c1N1CCN(C(=O)Cc2c(C(=O)O)[nH]c3ccc(Cl)cc23)CC1 [YPI-A4880, 5-Chloro-3-(2-(4-(2-chloro-6-methylphenyl)piperazin-1-yl)-2-oxoethyl)-1H-indole-2-carboxylic acid] | 42.8 | 75.2 | 97.6 | 98.1 | 98.4 |
| CC1CN(C(=O)Cc2c(C(=O)O)[nH]c3ccc(Cl)cc23)CCN1c1ccccc1 (stereo not drawn) [YPI-A4883, 5-Chloro-3-(2-(3-methyl-4-phenylpiperazin-1-yl)-2-oxoethyl)-1H-indole-2-carboxylic acid] | < 20 | < 20 | < 20 | < 20 | < 20 |
| CC1(C)CN(c2ccc(Cl)cc2)CCN1C(=O)Cc1c(C(=O)O)[nH]c2ccc(Cl)cc12 [YPI-A4884, 5-Chloro-3-(2-(4-(4-chlorophenyl)-2,2-dimethylpiperazin-1-yl)-2-oxoethyl)-1H-indole-2-carboxylic acid] | < 20 | < 20 | < 20 | < 20 |  |
| COc1ccc(Cl)c(N2CCN(C(=O)Cc3c(C(=O)O)[nH]c4ccc(Cl)cc34)CC2)c1 [YPI-A4886, 5-Chloro-3-(2-(4-(2-chloro-5-methoxyphenyl)piperazin-1-yl)-2-oxoethyl)-1H-indole-2-carboxylic acid] | < 20 | < 20 | 33.7 | 66.2 | 79.9 |
| C[C@@H]1CN(c2ccccc2)CCN1C(=O)Cc1c(C(=O)O)[nH]c2ccc(Cl)cc12 [YPI-A4914, (R)-5-chloro-3-(2-(2-methyl-4-phenylpiperazin-1-yl)-2-oxoethyl)-1H-indole-2-carboxylic acid] | < 20 | < 20 | < 20 | < 20 | 68.2 |
| O=C(O)c1[nH]c2ccc(Cl)cc2c1CC(=O)N1CCN(c2cc(Cl)c(Cl)c(Cl)c2)CC1 [YPI-A4916, 5-Chloro-3-(2-oxo-2-(4-(3,4,5-trichlorophenyl)piperazin-1-yl)ethyl)-1H-indole-2-carboxylic acid] | < 20 | 45.7 | 82.6 | 90.9 | 91.4 |
| O=C(O)c1ccc(N2CCN(C(=O)Cc3c(C(=O)O)[nH]c4ccc(Cl)cc34)CC2)cc1 [YPI-A4919, 3-(2-(4-(4-Carboxyphenyl)piperazin-1-yl)-2-oxoethyl)-5-chloro-1H-indole-2-carboxylic acid] | < 20 | < 20 | < 20 | < 20 | < 20 |
| CC(=O)c1ccc(N2CCN(C(=O)Cc3c(C(=O)O)[nH]c4ccc(Cl)cc34)CC2)cc1 [YPI-A4920, 3-(2-(4-(4-Acetylphenyl)piperazin-1-yl)-2-oxoethyl)-5-chloro-1H-indole-2-carboxylic acid] | < 20 | < 20 | < 20 | < 20 | < 20 |
| CCOc1ccc(N2CCN(C(=O)Cc3c(C(=O)O)[nH]c4ccc(Cl)cc34)CC2)cc1 [YPI-A4921, 5-Chloro-3-(2-(4-(4-ethoxyphenyl)piperazin-1-yl)-2-oxoethyl)-1H-indole-2-carboxylic acid] | < 20 | < 20 | < 20 | 72.5 | 73.8 |
| CC(C)(C)c1ccc(N2CCN(C(=O)Cc3c(C(=O)O)[nH]c4ccc(Cl)cc34)CC2)cc1 [YPI-A4943, 3-(2-(4-(4-(Tert-butyl)phenyl)piperazin-1-yl)-2-oxoethyl)-5-chloro-1H-indole-2-carboxylic acid] | < 20 | 34.1 | 70.8 | 81.9 | 91.5 |
